Experimental data taken from ChEMBL document CHEMBL1139343, “Pharmacophore guided discovery of small-molecule human apurinic/apyrimidinic endonuclease 1 inhibitors” (J Med Chem, 2009).

Each molecule was assayed against DNA repair nuclease/redox regulator APEX1 (Homo sapiens, UniProt P27695) (assay: Inhibition of purified human recombinant APE1 expressed in Escherichia coli M15 cells).
DNA repair nuclease/redox regulator APEX1, sequence (P27695 whole entry): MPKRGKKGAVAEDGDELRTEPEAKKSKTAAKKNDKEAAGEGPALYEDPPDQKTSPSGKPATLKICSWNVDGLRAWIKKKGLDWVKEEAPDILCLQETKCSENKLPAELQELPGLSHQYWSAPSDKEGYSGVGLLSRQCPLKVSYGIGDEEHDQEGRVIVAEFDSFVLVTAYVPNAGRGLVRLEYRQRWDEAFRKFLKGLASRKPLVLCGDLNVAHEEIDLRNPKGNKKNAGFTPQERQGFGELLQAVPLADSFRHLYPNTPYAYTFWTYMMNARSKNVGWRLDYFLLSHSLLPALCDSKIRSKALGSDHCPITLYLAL

| IC50 | Structure (SMILES) |
| --- | --- |
| > 100 µM | CCS(=O)(=O)N1CCN(S(=O)(=O)c2ccc(C(=O)O)cc2)CC1 |
| > 100 µM | Cc1cc(S(=O)(=O)N2CCOCC2)ccc1OCC(=O)N1CCCC1 |
| > 100 µM | CC1CCCCC1N(Cc1ccccc1F)S(=O)(=O)c1ccc(S(=O)(=O)N(C)C)cc1 (configuration not stated) |
| > 100 µM | O=C(O)CC1S/C(=N/N=C/c2ccco2)NC1=O (configuration not stated) |
| 16 µM | Cc1oc(CSCC2CCCO2)cc1C(=O)O (configuration not stated) |
| 30 µM | O=C(O)CC(CC(=O)Nc1nnn[nH]1)c1ccccc1 (configuration not stated) |
| > 100 µM | O=S(=O)(O)CCCSc1sc2ccccc2[n+]1CCCS(=O)(=O)O |
| 33 µM | O=C(O)CSc1cccc(C(=O)O)c1 |
| > 100 µM | O=C(O)c1cccc(NS(=O)(=O)c2cccc3nsnc23)c1 |
| 9 µM | O=C(O)CN1C(=O)/C(=C2\SC(=S)NC2=O)c2ccccc21 |
| 50 µM | O=C(O)CCC1(CCC(=O)O)c2ccccc2-c2ccccc21 |
| > 100 µM | O=C(Nc1nnc(CCS(=O)(=O)c2ccc3ccccc3c2)s1)c1ccccc1Cl |
| > 100 µM | CCC(=O)N(Cc1ccc(S(N)(=O)=O)cc1)C1CC(=O)N(c2ccccc2)C1=O (configuration not stated) |
| > 100 µM | COc1ccc(NS(=O)(=O)c2ccc(NC(=O)c3ccccc3C(=O)O)cc2)nn1 |
| 9 µM | O=C(O)CCc1ccc(-c2ccc(F)cc2)n1CC(=O)O |
| > 100 µM | C(=C\CSc1nnnn1-c1ccccc1)/CSc1nnnn1-c1ccccc1 |
| > 100 µM | O=C(Nc1ccccc1O)c1cc(S(=O)(=O)N2CCCCC2)ccc1Cl |
| > 100 µM | O=C(Nc1ccccc1O)c1cc(S(=O)(=O)N2CCCCCC2)ccc1Cl |
| > 100 µM | CCCCOC(=O)c1ccc(NC(=O)CSc2nnnn2CC)cc1 |
| > 100 µM | CCOc1cc(-n2cnnn2)c(OCC)cc1NC(=O)c1cc2cccc(OC)c2oc1=O |
| > 100 µM | Cn1c(CCNS(=O)(=O)c2ccccc2)nnc1SCc1cccnc1 |
| > 100 µM | O=C(CCc1nc(-c2ccc(Cl)cc2)no1)Nc1nnn[nH]1 |
| 11 µM | O=C(O)CN1C(=O)/C(=C2\SC(=S)N(NC(=O)c3ccccc3O)C2=O)c2ccccc21 |

| IC50 | Structure (SMILES) |
| --- | --- |
| 100 µM | O=C(O)CSc1ccc(C(=O)O)cc1[N+](=O)[O-] |
| > 100 µM | COc1cc(C=C2C(=O)OC3(CCCC3)OC2=O)cc(I)c1OCc1ccccc1C#N |
| 50 µM | C/C(CCc1ccc2c(c1)OCO2)=N\N=C1/NC(=O)CC(C(=O)O)S1 (configuration not stated) |
| > 100 µM | COC(=O)COc1ccc(S(=O)(=O)N2CCCCC2)cc1C |
| 87 µM | O=C(O)c1cccc(S(=O)(=O)N2CCCC(c3nc(O)c4nnn(Cc5ccccc5Cl)c4n3)C2)c1 (configuration not stated) |
| 40 µM | O=C(O)CCC(=O)NC(Cc1ccccc1)C(=O)O (configuration not stated) |
| 5 µM | Cc1oc(CSCCSCc2cc(C(=O)O)c(C)o2)cc1C(=O)O |
| > 100 µM | Cc1cc(S(=O)(=O)N2CCOCC2)ccc1OCC(=O)NCc1ccncc1 |
| 40 µM | CN(C)c1ccc(-c2noc(C3CCN(S(=O)(=O)c4cccc(C(=O)O)c4)CC3)n2)cc1 |
| > 100 µM | COc1cc(-c2nnn[nH]2)ccc1OCC(=O)O |
| 40 µM | O=C(O)CCS(=O)(=O)CCC(=O)O |
| 3 µM | O=C(O)CN1C(=O)/C(=C2\SC(=S)N(C(Cc3ccccc3)C(=O)O)C2=O)c2ccccc21 (configuration not stated) |
| > 100 µM | O=C(Nc1nnc(CCS(=O)(=O)c2ccc3ccccc3c2)s1)c1ccccc1 |
| > 100 µM | O=S(=O)(O)CCSc1nnc(SCCS(=O)(=O)O)s1 |
| > 100 µM | O=C(O)c1cccc(Nc2nc3ccccc3nc2NS(=O)(=O)c2cccc([N+](=O)[O-])c2)c1 |
| > 100 µM | O=C(O)c1ccc(NS(=O)(=O)c2cccs2)cc1 |
| > 100 µM | O=C(O)CNC(=O)c1cc(=O)[nH]c(=O)[nH]1 |
| > 100 µM | NC(=O)CSc1nnc(-c2ccc(S(=O)(=O)N3CCCCC3)cc2)n1Cc1ccccc1 |
| 17 µM | O=C(O)CCSc1nnc(SCCC(=O)O)s1 |
| > 100 µM | O=P(O)(O)c1ccccc1OCCOc1ccccc1P(=O)(O)O |
| > 100 µM | CS(=O)(=O)NCc1nnc(SCC(=O)N2CCCCCC2)n1-c1ccc(F)cc1 |
| > 100 µM | CCS(=O)(=O)Nc1cc2c(C(C)=O)c(C)n(S(=O)(=O)CC)c2cc1C |
| > 100 µM | O=C(CN(Cc1cccs1)S(=O)(=O)c1ccc(S(=O)(=O)NC2CC2)cc1)Nc1ccccc1 |

| IC50 | Structure (SMILES) |
| --- | --- |
| > 100 µM | CCS(=O)(=O)N1CCCC(c2nc(O)c3nnn(Cc4ccccc4)c3n2)C1 (configuration not stated) |
| > 100 µM | COc1ccc(/C=C/C(=O)O)cc1S(=O)(=O)NCc1cccnc1 |
| > 100 µM | O=C(O)CCCNc1n[nH]c(=O)[nH]c1=O |
| 6 µM | Cc1cc(CSCc2cc(C(=O)O)c(C)o2)oc1C(=O)O |
| 8 µM | O=C(c1ccc2c(c1)C(=O)N(c1ccccc1C(=O)O)C2=O)c1ccc2c(c1)C(=O)N(c1ccccc1C(=O)O)C2=O |
| > 100 µM | COC(=O)CSc1nnc(-c2ccc(NS(C)(=O)=O)cc2)n1C |
| 80 µM | O=C(O)CCn1c(=O)oc2cc(S(=O)(=O)O)ccc21 |
| > 100 µM | CCc1nnc(NC(=O)c2cc(S(=O)(=O)N(CC)CC)ccc2Cl)s1 |
| > 100 µM | COc1ccc(/C=C/C(=O)O)cc1S(=O)(=O)NC1CCS(=O)(=O)C1 (configuration not stated) |
| 6 µM | O=C(O)CN1C(=O)/C(=C2\SC(=S)N(c3ccc(Br)cc3)C2=O)c2ccccc21 |
| 9 µM | O=C(O)CCc1ccc(-c2cccs2)n1CC(=O)O |
| 11 µM | O=C(O)CC1OC(=O)c2cc3c(cc21)C(=O)OC3CC(=O)O (configuration not stated) |
| > 100 µM | COc1ccccc1C(=O)NCC(C)(C)CNC1=NS(=O)(=O)c2ccccc21 |
| > 100 µM | CCc1cc2c(=O)c(-c3nc4ccccc4s3)c(C)oc2cc1OS(C)(=O)=O |
| 33 µM | O=C(O)c1cccc(S(=O)(=O)N2CCCC(c3nc(O)c4nnn(Cc5ccc(F)cc5)c4n3)C2)c1 (configuration not stated) |
| > 100 µM | CCNC(=O)c1cc(S(=O)(=O)NCc2ccc(C(=O)O)cc2)c(C)s1 |
| > 100 µM | CCn1c(SCCN2CCCC2)nnc1C1CCCN(S(C)(=O)=O)C1 (configuration not stated) |
| 20 µM | Cc1nc2ccc(C(=O)O)cc2c(O)c1CCC(=O)O |
| > 100 µM | O=S(=O)(O)c1ccccc1Nc1ccnc(Nc2ccccc2S(=O)(=O)O)n1 |
| > 100 µM | Cc1cc(C)nc(SCc2nnc(SCC(=O)N3CCCCC3)n2-c2ccccc2)n1 |
| > 100 µM | O=S(=O)(c1ccc(F)cc1)N1CCCC(c2nc(O)c3nnn(Cc4ccc(F)cc4)c3n2)C1 (configuration not stated) |
| 11 µM | Cc1ccc(OCc2ccoc2C(=O)O)cc1C |
| > 100 µM | O=[N+]([O-])c1ccccc1-c1nnc(CSc2nnc(-c3ccccc3O)o2)o1 |

| IC50 | Structure (SMILES) |
| --- | --- |
| > 100 µM | O=C(O)CCC1(CCC(=O)O)CCCCC1=O |
| 35 µM | Cc1ccccc1NC(=O)c1cccc(NC(=O)CCC(=O)O)c1 |
| > 100 µM | C=CCN1C(=S)S/C(=C/C=C2\Sc3ccccc3N2CCCS(=O)(=O)O)C1=S |
| > 100 µM | COC(=O)C1C(=O)C2=C(CC1C)NC(C)=C(C(=O)OC1CCCC1)C2c1ccccc1C (configuration not stated) |
| > 100 µM | O=C(Nc1ccccc1O)c1cccc(S(=O)(=O)N2CCCC2)c1 |
| > 100 µM | CN(NC(=O)COc1ccccc1)C1=NS(=O)(=O)c2ccccc21 |
| 100 µM | Cc1cc(S(=O)(=O)N2CCOCC2)ccc1OCC(=O)O |
| > 100 µM | Cc1ccc(-c2nnc3c4ccccc4c(C)nn23)cc1S(=O)(=O)N1CCOCC1 |
| 40 µM | O=C(O)CC[S+]([O-])CCC(=O)O |
| 26 µM | Cc1oc(C)c(C(=O)NCC(=O)O)c1C(=O)NCC(=O)O |
| 100 µM | Cc1cc(NC(=O)CCC(=O)O)ccc1NC(=O)c1cccs1 |
| > 100 µM | O=S(=O)(c1cc(S(=O)(=O)N2CCOCC2)c2n[n+]3c4cc(S(=O)(=O)N5CCOCC5)cc(S(=O)(=O)N5CCOCC5)c4[n-]n3c2c1)N1CCOCC1 |
| > 100 µM | N#C/C(=C\c1ccc(-c2ccccc2[N+](=O)[O-])o1)S(=O)(=O)c1ccccc1 |
| 100 µM | O=S(=O)(O)CC(O)CSc1nc2ccccc2s1 (configuration not stated) |
| 27 µM | NC(=O)CSc1nc2ccc(NC(=O)c3ccccc3C(=O)O)cc2s1 |
| > 100 µM | CCNC(=O)c1cc(S(=O)(=O)NCCC(=O)O)c(C)s1 |
| 19 µM | O=C(O)CSc1cc(-c2ccccc2)nc(SCC(=O)O)n1 |
| 80 µM | O=C(O)c1cccc(S(=O)(=O)N2CCS(=O)(=O)CC2)c1 |
| > 100 µM | Cc1cc(S(=O)(=O)N2CCc3ccccc32)ccc1OCC(=O)NCc1ccccn1 |
| > 100 µM | Cc1ccc(S(=O)(=O)Nc2ccc(NC(=O)CN3CCCCC3)c(Cl)c2)cc1 |
| > 100 µM | CN(c1ccc(C(=O)Nc2ccc(F)cc2)cc1)S(=O)(=O)c1ccccc1 |
| 80 µM | O=C(O)CCc1nc2cc(C(=O)O)ccc2[nH]1 |
| 13 µM | O=C(O)CN1C(=O)/C(=C2/C(=O)N(CC(=O)O)c3ccccc32)SC1=S |

| IC50 | Structure (SMILES) |
| --- | --- |
| > 100 µM | CC1CCc2c(sc3nc(C4CC4)n4c(SCC(=O)Nc5nccs5)nnc4c23)C1 (configuration not stated) |
| 15 µM | O=C(O)CCn1c(=S)n(CCC(=O)O)c2ccccc21 |
| 40 µM | Cc1oc(C(=O)O)cc1CSCc1cc(C(=O)O)oc1C |
| > 100 µM | O=S(=O)(c1ccc(OC(F)(F)F)cc1)N1CCCC(c2nc(O)c3nnn(Cc4ccccc4Cl)c3n2)C1 (configuration not stated) |
| > 100 µM | Nc1ccc(-c2ccc(N)c(S(=O)(=O)O)c2)cc1S(=O)(=O)O |
| > 100 µM | CCOC(=O)C(=Cc1c[nH]c2ccc(S(=O)(=O)N(C)C)cc12)C(=O)OCC |
| > 100 µM | COc1ccc(N(CC(=O)NC2CCCC2)C(=O)C2CSC(=O)C2)cc1 (configuration not stated) |
| > 100 µM | CN(c1ccc(C(=O)O)cc1)S(=O)(=O)c1cccs1 |
| 12 µM | Cc1ccc(-c2ccc(CCC(=O)O)n2CC(=O)O)cc1 |
| > 100 µM | CC(C)c1nnc(NC(=O)C2CCCN2S(=O)(=O)c2ccc(F)cc2)s1 (configuration not stated) |
| 16 µM | O=C(O)Cn1c(=O)n(CC(=O)O)c2ccccc21 |
| > 100 µM | COC(=O)C1C(=O)c2c([nH]c(C(=O)OC3CCCCC3)c2C)CC1C (configuration not stated) |
| > 100 µM | Cn1c(SCC(N)=O)nnc1-c1ccc(NS(C)(=O)=O)cc1 |
| > 100 µM | CCn1c(SCC(=O)c2cccs2)nnc1-c1ccc(NS(C)(=O)=O)cc1 |
| 6 µM | O=C(O)c1ccc(S(=O)(=O)c2ccc(Sc3ccc(C(=O)O)c(C(=O)O)c3)cc2)cc1 |
| 27 µM | O=C(Nc1cc(S(=O)(=O)O)cc2cc(S(=O)(=O)O)cc(O)c12)c1ccccc1 |
| 100 µM | C=CCN1C(=O)C(Cc2ccccc2)S/C1=N/c1ccc(C(=O)O)cc1 (configuration not stated) |
| 55 µM | O=C(O)c1cccc(NC(=O)C2CCCCC2C(=O)O)c1 (configuration not stated) |
| > 100 µM | O=[N+]([O-])c1ccccc1-c1nnc(CSc2nc(-c3ccccc3O)n[nH]2)o1 |
| > 100 µM | O=C(CN1C(=O)c2ccccc2S1(=O)=O)Nc1ccc(Cl)c(C(=O)O)c1 |
